{
  "source": "patent US20160034667A1",
  "about": "“TAILORED DRUG THERAPIES AND METHODS AND SYSTEMS FOR DEVELOPING SAME” (COMPANION DX REFERENCE LAB, LLC, priority 2014, published 2016)",
  "origin": "cited, not measured here",
  "key": {"[1]": {"system": "NSCLC patients with drug-sensitive EGFR mutations"}, "[2]": {"system": "molecularly unselected NSCLC patients", "conditions": "FIG. 8 (A)"}, "CYP2D6": {"target": "CYP2D6 (Homo sapiens, UniProt P10635)", "sequence (P10635 whole entry)": "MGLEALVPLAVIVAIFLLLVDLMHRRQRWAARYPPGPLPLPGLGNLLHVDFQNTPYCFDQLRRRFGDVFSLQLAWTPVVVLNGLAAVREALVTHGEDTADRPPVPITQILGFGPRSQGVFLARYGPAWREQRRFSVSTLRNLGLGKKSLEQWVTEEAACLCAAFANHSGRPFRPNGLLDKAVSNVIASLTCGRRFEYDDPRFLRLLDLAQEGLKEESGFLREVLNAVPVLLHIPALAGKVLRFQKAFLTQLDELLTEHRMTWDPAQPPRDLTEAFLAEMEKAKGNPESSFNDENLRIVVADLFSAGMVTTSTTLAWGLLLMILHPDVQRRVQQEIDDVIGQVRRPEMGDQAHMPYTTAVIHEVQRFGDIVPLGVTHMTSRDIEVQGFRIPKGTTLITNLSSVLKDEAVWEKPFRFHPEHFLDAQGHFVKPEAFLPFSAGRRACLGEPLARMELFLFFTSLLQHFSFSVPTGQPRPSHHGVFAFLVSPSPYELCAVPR"}, "[3]": {"experiment": "not given", "remark": "listed apart in the source"}, "[4]": {"conditions": "printed on the line of the peak range"}, "[5]": {"conditions": "printed on the line of the trough range"}},
  "note": "Where two headings read alike, the source gives them in different places.",
  "data": [
    {"compound": "CCN(CC)CCNC(=O)c1ccc(NC(C)=O)cc1", "note": "[NAPA, N-acetylprocainamide]", "values": [
      {"measurement": "t1/2", "setting": "in vivo", "result": "6 to 12", "unit": "h"}
    ]},
    {"compound": "CCC1(c2ccccc2)C(=O)NCNC1=O", "note": "[Primidone]", "values": [
      {"measurement": "Critical", "setting": "in vivo", "result": ">15", "unit": "mg/L"},
      {"measurement": "Therapeutic Range", "setting": "in vivo", "result": "5 to 12", "unit": "mg/L"},
      {"measurement": "t1/2", "setting": "in vivo", "result": "6 to 12", "unit": "h"}
    ]},
    {"compound": "C[C@H]1O[C@@H](O[C@H]2[C@@H](O)C[C@H](O[C@H]3[C@@H](O)C[C@H](O[C@H]4CC[C@@]5(C)[C@H](CC[C@@H]6[C@@H]5C[C@@H](O)[C@]5(C)[C@@H](C7=CC(=O)OC7)CC[C@]65O)C4)O[C@@H]3C)O[C@@H]2C)C[C@H](O)[C@@H]1O", "note": "[Digoxin]", "values": [
      {"measurement": "t1/2", "setting": "in vivo", "result": "33 to 51", "unit": "h"}
    ]},
    {"compound": "CCN(CC)CC(=O)Nc1c(C)cccc1C", "note": "[Lidocaine]", "values": [
      {"measurement": "Critical", "setting": "in vivo", "result": ">8.0", "unit": "mg/L"},
      {"measurement": "Therapeutic Range", "setting": "in vivo", "result": "1.5 to 5", "unit": "mg/L"}
    ]},
    {"compound": "[Li]", "note": "[Lithium]", "values": [
      {"measurement": "Critical", "setting": "in vivo", "result": ">2.0", "unit": "mmol/L"},
      {"measurement": "Therapeutic Range", "setting": "in vivo", "result": "0.5 to 1.5", "unit": "mmol/L"},
      {"measurement": "t1/2", "setting": "in vivo", "result": 19, "unit": "h"}
    ]},
    {"compound": "C#Cc1cccc(Nc2ncnc3cc(OCCOC)c(OCCOC)cc23)c1", "note": "[erlotinib]", "values": [
      {"measurement": "response in patients with drug-sensitive EGFR mutations at Exon 19 and 21", "setting": "[1]", "result": "significantly better response"}
    ]},
    {"compound": "NC[C@H]1O[C@H](O[C@H]2[C@H](O)[C@@H](O[C@H]3O[C@H](CO)[C@@H](O)[C@H](N)[C@H]3O)[C@H](N)C[C@@H]2N)[C@H](N)C[C@@H]1O", "note": "[Tobramycin]", "values": [
      {"measurement": "t1/2", "setting": "in vivo", "result": 2, "unit": "h"},
      {"measurement": "Therapeutic Range, peak", "result": "peak 4-10 mg/L,"},
      {"measurement": "Critical", "setting": "[4]", "result": ">12 mg/L,"},
      {"measurement": "Critical", "setting": "[5]", "result": ">5", "unit": "mg/L"},
      {"measurement": "Therapeutic Range, trough", "result": "trough 0.5-1.5 mg/L"}
    ]},
    {"compound": "NC(=O)N1c2ccccc2C=Cc2ccccc21", "note": "[Carbamazepine]", "values": [
      {"measurement": "Critical", "setting": "in vivo", "result": ">15", "unit": "mg/L"},
      {"measurement": "Therapeutic Range", "setting": "in vivo", "result": "8 to 12", "unit": "mg/L"},
      {"measurement": "t1/2", "setting": "in vivo", "result": "10 to 48", "unit": "h"}
    ]},
    {"compound": "CN[C@H](CC(C)C)C(=O)N[C@H]1C(=O)N[C@@H](CC(N)=O)C(=O)N[C@H]2C(=O)N[C@H]3C(=O)N[C@H](C(=O)N[C@H](C(=O)O)c4cc(O)cc(O)c4-c4cc3ccc4O)[C@H](O)c3ccc(c(Cl)c3)Oc3cc2cc(c3O[C@@H]2O[C@H](CO)[C@@H](O)[C@H](O)[C@H]2O[C@H]2C[C@](C)(N)[C@H](O)[C@H](C)O2)Oc2ccc(cc2Cl)[C@H]1O", "note": "[Vancomycin]", "values": [
      {"measurement": "t1/2", "setting": "in vivo", "result": "5.0 to 6.5", "unit": "h"},
      {"measurement": "Therapeutic Range, peak", "result": "peak 30-40 mg/L,"},
      {"measurement": "Critical", "setting": "[4]", "result": ">50 mg/L,"},
      {"measurement": "Critical", "setting": "[5]", "result": ">15", "unit": "mg/L"},
      {"measurement": "Therapeutic Range, trough", "result": "trough 5-15 mg/L"}
    ]},
    {"compound": "O=C(O)c1ccccc1O", "note": "[Salicylate]", "values": [
      {"measurement": "Critical", "setting": "in vivo", "result": ">450", "unit": "mg/L"},
      {"measurement": "Therapeutic Range", "setting": "in vivo", "result": "100 to 300", "unit": "mg/L"},
      {"measurement": "t1/2", "setting": "in vivo", "result": "2 to 19", "unit": "h"}
    ]},
    {"compound": "O=C1NC(=O)C(c2ccccc2)(c2ccccc2)N1", "note": "[Phenytoin]", "values": [
      {"measurement": "Critical", "setting": "in vivo", "result": ">25", "unit": "mg/L"},
      {"measurement": "Therapeutic Range", "setting": "in vivo", "result": "10 to 20", "unit": "mg/L"},
      {"measurement": "t1/2", "setting": "in vivo", "result": "6 to 24", "unit": "h"}
    ]},
    {"compound": "Gentamicin", "values": [
      {"measurement": "Critical", "setting": "in vivo", "result": ">12", "unit": "mg/L"},
      {"measurement": "t1/2", "setting": "in vivo", "result": 2, "unit": "h"},
      {"measurement": "Therapeutic Range, peak", "result": "peak 4-10 mg/L,"},
      {"measurement": "Therapeutic Range, trough", "result": "trough 1-2 mg/L"}
    ]},
    {"compound": "C=C[C@H]1C[N@@]2CC[C@H]1C[C@@H]2[C@@H](O)c1ccnc2ccc(OC)cc12", "note": "[Quinidine]", "values": [
      {"measurement": "Critical", "setting": "in vivo", "result": ">7", "unit": "mg/L"}
    ]},
    {"compound": "CCC1(c2ccccc2)C(=O)NC(=O)NC1=O", "note": "[Phenobarbital]", "values": [
      {"measurement": "t1/2", "setting": "in vivo", "result": "72 to 100", "unit": "h"}
    ]},
    {"compound": "CC(=O)Nc1ccc(O)cc1", "note": "[Acetaminophen]", "values": [
      {"measurement": "Critical", "setting": "in vivo", "result": ">40", "unit": "mg/L"},
      {"measurement": "Therapeutic Range", "setting": "in vivo", "result": "10 to 25", "unit": "mg/L"},
      {"measurement": "t1/2", "setting": "in vivo", "result": "1 to 3", "unit": "h"}
    ]},
    {"compound": "Cn1c(=O)c2[nH]cnc2n(C)c1=O", "note": "[Theophylline]", "values": [
      {"measurement": "Therapeutic Range", "setting": "in vivo", "result": "10 to 20", "unit": "mg/L"},
      {"measurement": "t1/2", "setting": "in vivo", "result": "3 to 9", "unit": "h"}
    ]},
    {"compound": "COc1cc2ncnc(Nc3ccc(F)c(Cl)c3)c2cc1OCCCN1CCOCC1", "note": "[gefitinib, Gefitinib]", "values": [
      {"measurement": "progression free survival rate", "setting": "[2]", "result": "no detectable change"},
      {"measurement": "inhibition of CYP2D6 activity", "setting": "CYP2D6", "result": "weak inhibitor"},
      {"measurement": "reduction of area under the curve of gefitinib", "setting": "[3]; co-medication with CYP3A4 inducer rifampin", "result": 83, "unit": "%"},
      {"measurement": "exposure to gefitinib", "setting": "[3]; co-medication with CYP3A4 inhibitor (intraconazole), health men", "result": "increases exposure"}
    ]},
    {"compound": "NCC[C@H](O)C(=O)N[C@@H]1C[C@H](N)[C@@H](O[C@H]2O[C@H](CN)[C@@H](O)[C@H](O)[C@H]2O)[C@H](O)[C@H]1O[C@H]1O[C@H](CO)[C@@H](O)[C@H](N)[C@H]1O", "note": "[Amikacin]", "values": [
      {"measurement": "Critical", "setting": "in vivo", "result": ">40", "unit": "mg/L"},
      {"measurement": "t1/2", "setting": "in vivo", "result": 2.5, "unit": "h"},
      {"measurement": "Therapeutic Range, peak", "result": "peak 20-30 mg/L,"},
      {"measurement": "Therapeutic Range, trough", "result": "trough 1-8 mg/L"}
    ]},
    {"compound": "CCCC(CCC)C(=O)O", "note": "[Valproic acid]", "values": [
      {"measurement": "Critical", "setting": "in vivo", "result": ">200", "unit": "mg/L"},
      {"measurement": "Therapeutic Range", "setting": "in vivo", "result": "50 to 100", "unit": "mg/L"},
      {"measurement": "t1/2", "setting": "in vivo", "result": "8 to 15", "unit": "h"}
    ]}
  ]
}
